Each block holds one compound with its values, some of them ahead of it.
Columns and labels:
[1] = molecular target: T1, Nuclear factor erythroid 2-related factor 2 (Homo sapiens) (UniProt Q16236); experiment: Activation of Nrf2 in human HepG2 cells at 2 uM incubated for 12 hrs by ARE-driven luciferase reporter gene assay relative to control; type: cell-based
T1 sequence (whole entry): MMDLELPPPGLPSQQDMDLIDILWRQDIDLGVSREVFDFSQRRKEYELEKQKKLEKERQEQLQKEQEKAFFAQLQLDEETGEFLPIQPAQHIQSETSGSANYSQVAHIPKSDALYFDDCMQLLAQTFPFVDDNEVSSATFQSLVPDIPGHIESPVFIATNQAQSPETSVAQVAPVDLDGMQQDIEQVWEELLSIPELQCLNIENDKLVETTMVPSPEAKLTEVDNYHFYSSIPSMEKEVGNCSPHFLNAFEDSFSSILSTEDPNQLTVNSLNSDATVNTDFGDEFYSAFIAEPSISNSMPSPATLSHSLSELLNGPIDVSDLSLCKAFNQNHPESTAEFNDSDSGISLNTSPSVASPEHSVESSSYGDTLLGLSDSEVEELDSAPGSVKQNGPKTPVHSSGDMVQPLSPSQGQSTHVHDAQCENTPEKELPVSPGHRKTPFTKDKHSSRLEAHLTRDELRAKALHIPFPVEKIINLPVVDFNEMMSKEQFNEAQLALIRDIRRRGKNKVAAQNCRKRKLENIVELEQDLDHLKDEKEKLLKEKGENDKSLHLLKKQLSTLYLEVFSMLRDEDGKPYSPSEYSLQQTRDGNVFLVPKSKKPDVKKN

[2] = molecular target: T1, Nuclear factor erythroid 2-related factor 2 (Homo sapiens); experiment: Activation of Nrf2 in human HepG2 cells at 80 uM incubated for 12 hrs by ARE-driven luciferase reporter gene assay relative to control; type: cell-based
[3] = molecular target: T1, Nuclear factor erythroid 2-related factor 2 (Homo sapiens); experiment: Activation of Nrf2 in human HepG2 cells at 20 uM incubated for 12 hrs by ARE-driven luciferase reporter gene assay relative to control; type: cell-based
[4] = molecular target: T1, Nuclear factor erythroid 2-related factor 2 (Homo sapiens); experiment: Activation of Nrf2 in human HepG2 cells at 0.2 uM incubated for 12 hrs by ARE-driven luciferase reporter gene assay relative to control; type: cell-based
[5] = molecular target: T1, Nuclear factor erythroid 2-related factor 2 (Homo sapiens); experiment: Activation of Nrf2 in human HepG2 cells at 5 uM incubated for 12 hrs by ARE-driven luciferase reporter gene assay relative to control; type: cell-based
[6] = molecular target: T1, Nuclear factor erythroid 2-related factor 2 (Homo sapiens); experiment: Activation of Nrf2 in human HepG2 cells at 40 uM incubated for 12 hrs by ARE-driven luciferase reporter gene assay relative to control; type: cell-based
[7] = molecular target: T1, Nuclear factor erythroid 2-related factor 2 (Homo sapiens); experiment: Activation of Nrf2 in human HepG2 cells at 0.02 uM incubated for 12 hrs by ARE-driven luciferase reporter gene assay relative to control; type: cell-based
[8] = molecular target: T1, Nuclear factor erythroid 2-related factor 2 (Homo sapiens); experiment: Activation of Nrf2 in human HepG2 cells at 160 uM incubated for 12 hrs by ARE-driven luciferase reporter gene assay relative to control; type: cell-based
[9] = Cytotoxicity against human L02 cells assessed as cell viability at 20 uM after 24 hrs by MTT assay relative to control; type: cell-based; conditions: l02, 24 h
[10] = Cytotoxicity against human NCM460 cells assessed as cell viability at 20 uM after 24 hrs by MTT assay relative to control; type: cell-based; conditions: ncm460, 24 h
[11] = molecular target: T1, Nuclear factor erythroid 2-related factor 2 (Homo sapiens); experiment: Activation of Nrf2 in human HepG2 cells incubated for 12 hrs by ARE-driven luciferase reporter gene assay relative to control; type: cell-based
[12] = Cytotoxicity against human L02 cells assessed as cell viability at low to medium concentration after 24 hrs by MTT assay relative to control; type: cell-based; conditions: l02, 24 h
[13] = Cytotoxicity against human HCT116 cells assessed as cell viability after 24 hrs by MTT assay; type: cell-based; conditions: hct-116, 24 h
[14] = molecular target: T1, Nuclear factor erythroid 2-related factor 2 (Homo sapiens); experiment: Induction of Nrf2 translocation into nucleus in human L02 cells after 12 hrs by DAPI staining-based laser scanning confocal microscopic analysis; type: cell-based
[15] = Cytotoxicity against rat PC12 cells assessed as cell viability at 20 uM after 24 hrs by MTT assay relative to control; type: cell-based; conditions: pc-12, 24 h
[16] = Cytotoxicity against rat PC12 cells assessed as cell viability at low to medium concentration after 24 hrs by MTT assay relative to control; type: cell-based; conditions: pc-12, 24 h
[17] = Cytoprotective activity against H2O2-induced cytotoxicity in human NCM460 cells assessed as cell viability pretreated at 20 uM for 24 hrs followed by H2O2 challenge for 12 hrs by MTT assay (reference value: 50%); type: functional; conditions: read-out: Activity
[18] = molecular target: T1, Nuclear factor erythroid 2-related factor 2 (Homo sapiens); experiment: Activation of Nrf2 in human HCT116 cells assessed as upregulation of NQO1 after 8 hrs by western blot analysis; type: cell-based; conditions: HCT-116
[19] = molecular target: T1, Nuclear factor erythroid 2-related factor 2 (Homo sapiens); experiment: Induction of Nrf2 translocation from cytoplasm to nucleus in human HCT116 cells at 20 uM by western blot analysis; type: cell-based; conditions: HCT-116, TDE = time-dependent effect
[20] = molecular target: T1, Nuclear factor erythroid 2-related factor 2 (Homo sapiens); experiment: Induction of Nrf2 translocation into nucleus in human NCM460 cells after 12 hrs by DAPI staining-based laser scanning confocal microscopic analysis; type: cell-based
[21] = Cytotoxicity against human L02 cells assessed as cell viability at 160 uM after 24 hrs by MTT assay relative to control; type: cell-based; conditions: read-out: Activity
[22] = Cytotoxicity against rat PC12 cells assessed as cell viability at 160 uM after 24 hrs by MTT assay relative to control; type: cell-based, PC-12; conditions: read-out: Activity
[23] = molecular target: T1, Nuclear factor erythroid 2-related factor 2 (Homo sapiens); experiment: Activation of Nrf2 in human HCT116 cells assessed as upregulation of gamma-GCS after 8 hrs by western blot analysis; type: cell-based; conditions: HCT-116
[24] = molecular target: T2, Nuclear factor erythroid 2-related factor 2 (Rattus norvegicus) (UniProt O54968); experiment: Induction of Nrf2 translocation into nucleus in rat PC12 cells after 12 hrs by DAPI staining-based laser scanning confocal microscopic analysis; type: cell-based; conditions: PC-12
T2 sequence (whole entry): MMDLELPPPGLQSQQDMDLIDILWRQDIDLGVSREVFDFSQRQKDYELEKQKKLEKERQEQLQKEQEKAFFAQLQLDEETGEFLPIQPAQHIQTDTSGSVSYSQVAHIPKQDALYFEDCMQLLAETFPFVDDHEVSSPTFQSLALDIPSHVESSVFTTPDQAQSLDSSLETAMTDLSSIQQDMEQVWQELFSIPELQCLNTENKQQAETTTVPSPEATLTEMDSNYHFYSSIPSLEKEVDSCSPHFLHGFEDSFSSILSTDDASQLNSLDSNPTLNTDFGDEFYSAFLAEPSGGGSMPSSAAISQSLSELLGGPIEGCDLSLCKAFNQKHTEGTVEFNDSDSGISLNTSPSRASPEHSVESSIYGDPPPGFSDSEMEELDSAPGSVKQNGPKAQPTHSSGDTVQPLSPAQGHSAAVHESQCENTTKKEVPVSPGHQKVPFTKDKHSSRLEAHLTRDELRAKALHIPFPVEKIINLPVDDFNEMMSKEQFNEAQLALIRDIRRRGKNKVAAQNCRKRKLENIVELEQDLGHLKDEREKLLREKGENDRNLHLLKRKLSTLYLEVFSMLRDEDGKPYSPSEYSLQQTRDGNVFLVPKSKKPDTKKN

[25] = molecular target: T1, Nuclear factor erythroid 2-related factor 2 (Homo sapiens); experiment: Activation of Nrf2 in human HCT116 cells assessed as upregulation of HO-1 after 8 hrs by western blot analysis; type: cell-based; conditions: HCT-116
[26] = Cytotoxicity against human NCM460 cells assessed as cell viability at low to medium concentration after 24 hrs by MTT assay relative to control; type: cell-based; conditions: ncm460, 24 h
[27] = Cytotoxicity against human NCM460 cells assessed as cell viability at 160 uM after 24 hrs by MTT assay relative to control; type: cell-based; conditions: read-out: Activity
[28] = Cytoprotective activity against H2O2-induced cytotoxicity in human L02 cells assessed as cell viability pretreated at 20 uM for 24 hrs followed by H2O2 challenge for 12 hrs by MTT assay (reference value: 50%); type: functional; conditions: read-out: Activity
[29] = molecular target: T1, Nuclear factor erythroid 2-related factor 2 (Homo sapiens); experiment: Activation of Nrf2 expression in human HCT116 cells after 8 hrs by western blot analysis; type: cell-based; conditions: HCT-116
[30] = Cytoprotective activity against H2O2-induced cytotoxicity in rat PC12 cells assessed as cell viability pretreated at 20 uM for 24 hrs followed by H2O2 challenge for 12 hrs by MTT assay (reference value: 50%); type: functional; conditions: PC-12, read-out: Activity

Structure (SMILES): COc1ccc(Cl)cc1-c1nc(-c2ccc3oc(C)nc3c2)no1
fold change (FC) [3]: 3.72
fold change (FC) [5]: 3.62

Structure (SMILES): Cc1nc2cc(-c3noc(/C=C/c4ccccc4)n3)ccc2o1
fold change (FC) [1]: 4.11
fold change (FC) [2]: 7.31
fold change (FC) [3]: 5.46
fold change (FC) [4]: 3.14
fold change (FC) [5]: 4.64
fold change (FC) [6]: 6.78
fold change (FC) [7]: 2.26
fold change (FC) [8]: 7.64

Structure (SMILES): Cc1nc2cc(-c3noc(-c4cnccn4)n3)ccc2o1
fold change (FC) [1]: 4.67
Activity [9]: Non-toxic
Activity [10]: Non-toxic
Activity [11]: Dose-dependent effect
fold change (FC) [2]: 17.1
fold change (FC) [3]: 9.57
Activity [12]: Non-toxic
Activity [13]: Non-toxic
Activity [14]: Dose-dependent effect
Activity [15]: Non-toxic
Activity [16]: Non-toxic
viability at 20 µM [17]: 90%
Activity [18]: Dose-dependent effect
fold change (FC) [4]: 4.98
Activity [19]: tde
fold change (FC) [5]: 6.85
Activity [20]: Dose-dependent effect
viability at 24 h, 160 µM [21]: 80%
viability at 24 h, 160 µM [22]: 80%
Activity [23]: Dose-dependent effect
fold change (FC) [6]: 15.5
Activity [24]: Dose-dependent effect
Activity [25]: Dose-dependent effect
fold change (FC) [7]: 3.42
Activity [26]: Non-toxic
viability at 24 h, 160 µM [27]: 80%
viability at 20 µM [28]: 85%
fold change (FC) [8]: 15.3
Activity [29]: Dose-dependent effect
viability at 20 µM [30]: 80%

Structure (SMILES): c1ccc(-c2nc3cc(-c4noc(-c5ccc6[nH]cnc6c5)n4)ccc3o2)cc1
fold change (FC) [1]: 3.21
fold change (FC) [2]: 8.23
fold change (FC) [3]: 6.96
fold change (FC) [4]: 4.42
fold change (FC) [5]: 4.55
fold change (FC) [6]: 5.43
fold change (FC) [7]: 1.81
fold change (FC) [8]: 17.7

The remaining lines, values ahead:

fold change (FC) [1]: 7.51
fold change (FC) [2]: 6.17
fold change (FC) [3]: 6.28
fold change (FC) [4]: 6.14
fold change (FC) [5]: 4.98
fold change (FC) [6]: 7.33
fold change (FC) [7]: 3.81
fold change (FC) [8]: 5.74
Structure (SMILES): CC(C)n1c(=O)[nH]c2cc(-c3noc(C4CCCCC4)n3)ccc21

fold change (FC) [3]: 4.52
fold change (FC) [5]: 2.36
Structure (SMILES): CCc1ccc(-c2nc(-c3ccc4oc(C)nc4c3)no2)cc1

fold change (FC) [1]: 3.35
fold change (FC) [2]: 12.1
fold change (FC) [3]: 5.47
fold change (FC) [4]: 1.5
fold change (FC) [5]: 4.1
fold change (FC) [6]: 12.4
fold change (FC) [7]: 1.09
fold change (FC) [8]: 8.73
Structure (SMILES): Cn1cnc2ccc(-c3noc(-c4ccc5cc[nH]c5c4)n3)cc21

fold change (FC) [3]: 4.28
fold change (FC) [5]: 1.38
Structure (SMILES): CCc1cc(O)nc(SCc2nc(-c3ccc(Cl)c(F)c3)no2)n1

fold change (FC) [3]: 3.38
fold change (FC) [5]: 1.31
Structure (SMILES): CCOc1ccc(-c2nc(-c3ccc4[nH]c(=O)n(C5CCCC5)c4c3)no2)cc1OCC

fold change (FC) [1]: 4.86
fold change (FC) [2]: 6.01
fold change (FC) [3]: 7.27
fold change (FC) [4]: 4.19
fold change (FC) [5]: 3.2
fold change (FC) [6]: 7.03
fold change (FC) [7]: 3.71
fold change (FC) [8]: 8.4
Structure (SMILES): CCCn1c(=O)[nH]c2cc(-c3noc(C4CCCC4)n3)ccc21

— ChEMBL document CHEMBL3813628, “Molecular similarity guided optimization of novel Nrf2 activators with 1,2,4-oxadiazole core” (Bioorg Med Chem, 2016)
